Laboratory results: the NIST ThermoML archive (doi:10.1021/je200721d)

Assay: xn = mol fraction of the nth substance listed
Settings: Liquid, Vibrating tube method

CCCCCCCCCC [decane] + CCCCCC
Settings | mass density [kg/m3]
332.93 K, 7000 kPa, x2 = 0.8991 | 643.52
332.93 K, 8000 kPa, x2 = 0.8991 | 644.74
332.93 K, 9000 kPa, x2 = 0.8991 | 645.94
332.93 K, 10000 kPa, x2 = 0.8991 | 647.14
332.93 K, 11000 kPa, x2 = 0.8991 | 648.32
332.93 K, 12000 kPa, x2 = 0.8991 | 649.47
332.93 K, 13000 kPa, x2 = 0.8991 | 650.61
332.93 K, 14000 kPa, x2 = 0.8991 | 651.73
332.93 K, 15000 kPa, x2 = 0.8991 | 652.84
332.93 K, 16000 kPa, x2 = 0.8991 | 653.92
332.93 K, 17000 kPa, x2 = 0.8991 | 654.97
332.93 K, 18000 kPa, x2 = 0.8991 | 655.99
332.93 K, 19000 kPa, x2 = 0.8991 | 657.01
332.93 K, 20000 kPa, x2 = 0.8991 | 657.98
332.93 K, 21000 kPa, x2 = 0.8991 | 658.93
332.93 K, 22000 kPa, x2 = 0.8991 | 659.86
332.93 K, 23000 kPa, x2 = 0.8991 | 660.76
332.93 K, 24000 kPa, x2 = 0.8991 | 661.64
332.93 K, 25000 kPa, x2 = 0.8991 | 662.49
333.08 K, 1000 kPa, x2 = 0.2185 | 689.16
333.08 K, 2000 kPa, x2 = 0.2185 | 690.17
333.08 K, 3000 kPa, x2 = 0.2185 | 691.16
333.08 K, 4000 kPa, x2 = 0.2185 | 692.16
333.08 K, 5000 kPa, x2 = 0.2185 | 693.16
333.08 K, 6000 kPa, x2 = 0.2185 | 694.13
333.08 K, 7000 kPa, x2 = 0.2185 | 695.1
333.08 K, 8000 kPa, x2 = 0.2185 | 696.06
333.08 K, 9000 kPa, x2 = 0.2185 | 697.02
333.08 K, 10000 kPa, x2 = 0.2185 | 697.94
333.08 K, 10990 kPa, x2 = 0.2185 | 698.86
333.08 K, 12000 kPa, x2 = 0.2185 | 699.77
333.08 K, 13000 kPa, x2 = 0.2185 | 700.66
333.08 K, 14000 kPa, x2 = 0.2185 | 701.54
333.08 K, 15000 kPa, x2 = 0.2185 | 702.39
333.08 K, 16000 kPa, x2 = 0.2185 | 703.25
333.08 K, 17000 kPa, x2 = 0.2185 | 704.09
333.08 K, 18000 kPa, x2 = 0.2185 | 704.93
333.08 K, 19000 kPa, x2 = 0.2185 | 705.76
333.08 K, 20000 kPa, x2 = 0.2185 | 706.56
333.08 K, 21000 kPa, x2 = 0.2185 | 707.37
333.08 K, 22000 kPa, x2 = 0.2185 | 708.17
333.08 K, 23000 kPa, x2 = 0.2185 | 708.95
333.08 K, 24000 kPa, x2 = 0.2185 | 709.72
333.08 K, 25000 kPa, x2 = 0.2185 | 710.48
333.1 K, 1000 kPa, x2 = 0.7524 | 650.65
333.1 K, 2000 kPa, x2 = 0.7524 | 651.99
333.1 K, 3000 kPa, x2 = 0.7524 | 653.29
333.1 K, 4000 kPa, x2 = 0.7524 | 654.52
333.1 K, 5000 kPa, x2 = 0.7524 | 655.72
333.1 K, 6000 kPa, x2 = 0.7524 | 656.92
333.1 K, 7000 kPa, x2 = 0.7524 | 658.07
333.1 K, 8000 kPa, x2 = 0.7524 | 659.21
333.1 K, 9000 kPa, x2 = 0.7524 | 660.35
333.1 K, 10000 kPa, x2 = 0.7524 | 661.46
333.1 K, 10990 kPa, x2 = 0.7524 | 662.52
333.1 K, 12000 kPa, x2 = 0.7524 | 663.6
333.1 K, 13000 kPa, x2 = 0.7524 | 664.65
333.1 K, 14000 kPa, x2 = 0.7524 | 665.67
333.1 K, 15000 kPa, x2 = 0.7524 | 666.7
333.1 K, 16000 kPa, x2 = 0.7524 | 667.68
333.1 K, 17000 kPa, x2 = 0.7524 | 668.66
333.1 K, 18000 kPa, x2 = 0.7524 | 669.62
333.1 K, 19000 kPa, x2 = 0.7524 | 670.59
333.1 K, 20000 kPa, x2 = 0.7524 | 671.52
333.1 K, 21000 kPa, x2 = 0.7524 | 672.45
333.1 K, 22000 kPa, x2 = 0.7524 | 673.35
333.1 K, 23000 kPa, x2 = 0.7524 | 674.23
333.1 K, 24000 kPa, x2 = 0.7524 | 675.08
333.1 K, 25000 kPa, x2 = 0.7524 | 675.91
333.12 K, 1000 kPa, x2 = 0.0456 | 697.88
333.12 K, 2000 kPa, x2 = 0.0456 | 698.9
333.12 K, 3000 kPa, x2 = 0.0456 | 699.91
333.12 K, 4000 kPa, x2 = 0.0456 | 700.9
333.12 K, 5000 kPa, x2 = 0.0456 | 701.88
333.12 K, 6000 kPa, x2 = 0.0456 | 702.84
333.12 K, 7000 kPa, x2 = 0.0456 | 703.78
333.12 K, 8000 kPa, x2 = 0.0456 | 704.71
333.12 K, 9000 kPa, x2 = 0.0456 | 705.63
333.12 K, 10000 kPa, x2 = 0.0456 | 706.54
333.12 K, 10990 kPa, x2 = 0.0456 | 707.42
333.12 K, 12000 kPa, x2 = 0.0456 | 708.3
333.12 K, 13000 kPa, x2 = 0.0456 | 709.16
333.12 K, 14000 kPa, x2 = 0.0456 | 710.01
333.12 K, 15000 kPa, x2 = 0.0456 | 710.86
333.12 K, 16000 kPa, x2 = 0.0456 | 711.67
333.12 K, 17000 kPa, x2 = 0.0456 | 712.48
333.12 K, 18000 kPa, x2 = 0.0456 | 713.29
333.12 K, 19000 kPa, x2 = 0.0456 | 714.08
333.12 K, 20000 kPa, x2 = 0.0456 | 714.87
333.12 K, 21000 kPa, x2 = 0.0456 | 715.64
333.12 K, 22000 kPa, x2 = 0.0456 | 716.39
333.12 K, 23000 kPa, x2 = 0.0456 | 717.15
333.12 K, 24000 kPa, x2 = 0.0456 | 717.89
333.12 K, 25000 kPa, x2 = 0.0456 | 718.63
